From ChEMBL document CHEMBL5634117 (Eur J Med Chem, 2023) come the findings set out here.

Holding throughout (assay type): functional
The subject of test [1] is K562. The test is described as follows: Induction of cell cycle arrest in human K562 cells assessed as accumulation of cells at G2/M phase at 1.28 uM measured after 24 hrs by PI staining based flow cytometry analysis (reference value: 25.62%).
Test [2] concerns K562. The experiment in a line: Induction of cell cycle arrest in human K562 cells assessed as accumulation of cells at SubG1 phase at 1.28 uM measured after 24 hrs by PI staining based flow cytometry analysis (reference value: 2.21%). In general terms: A flow cytometer gives signals particle by particle.
Test [3] relates to K562. The test is described as follows: Induction of cell cycle arrest in human K562 cells assessed as accumulation of cells at G2/M phase at 5 uM measured after 24 hrs by PI staining based flow cytometry analysis (reference value: 29.44%).
The test system of test [4] is K562. The test is described as follows: Induction of cell cycle arrest in human K562 cells assessed as accumulation of cells at S phase at 2.56 uM measured after 24 hrs by PI staining based flow cytometry analysis (reference value: 21.74%).
In test [5] the test system is K562. The test is described as follows: Induction of apoptosis in human K562 cells assessed as early apoptotic cells at 2.5 uM incubated for 24 hrs by annexinV and propidium iodide staining based flow cytometry analysis (reference value: 0.42%).
Test [6] relates to K562. The test is described as follows: Induction of apoptosis in human K562 cells assessed as late apoptotic cells at 2.5 uM incubated for 24 hrs by annexinV and propidium iodide staining based flow cytometry analysis (reference value: 1.34%).
For test [7], the system named is K562. The experiment in a line: Induction of apoptosis in human K562 cells assessed as early apoptotic cells at 2.56 uM incubated for 24 hrs by annexinV and propidium iodide staining based flow cytometry analysis (reference value: 0.42%).
Test [8] concerns K562. The experiment in a line: Induction of cell cycle arrest in human K562 cells assessed as accumulation of cells at G2/M phase at 2.5 uM measured after 24 hrs by PI staining based flow cytometry analysis (reference value: 29.44%).

On to `CC(C)(C)n1cc(-c2ccnc(NCCCNS(=O)(=O)c3ccc(Cl)cc3)c2)c(-c2cccc(O)c2)n1`, for which the Activity is 58.95% in the test on K562 [1] and 0.23% in the test on K562 [2].

Turning to `O=C1c2ccccc2-c2n[nH]c3cccc1c23`, the Activity in the test on K562 [3] is 47.08%; in the test on K562 [4], 21.55%; with K562 [5], 1.17%; with K562 [6], 3.86%; with K562 [7], 1.05%; in the test on K562 [8], 45.34%.
